Test results from US7629341B2, “Human ADAM-10 inhibitors” (Symphony Evolution, Inc., priority 2003, dated 2009).

What was measured:
ADAM-10 = target: T1, ADAM-10 (UniProt O14672); assay: ADAM-10 enzyme assay, cleavage of a fluorogenic 10-residue peptide; format: biochemical, mouse or human (mADAM-10 or hADAM-10); conditions: in vitro;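 further: mouse or human ADAM-10 at 5 nM active enzyme, pH 8.0 HEPES buffer with CaCl2 and NP-40, compounds titrated 100 µM down to 0.5 nM, fluorescence read after 16 h at room temperature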
T1 sequence (O14672 1-748): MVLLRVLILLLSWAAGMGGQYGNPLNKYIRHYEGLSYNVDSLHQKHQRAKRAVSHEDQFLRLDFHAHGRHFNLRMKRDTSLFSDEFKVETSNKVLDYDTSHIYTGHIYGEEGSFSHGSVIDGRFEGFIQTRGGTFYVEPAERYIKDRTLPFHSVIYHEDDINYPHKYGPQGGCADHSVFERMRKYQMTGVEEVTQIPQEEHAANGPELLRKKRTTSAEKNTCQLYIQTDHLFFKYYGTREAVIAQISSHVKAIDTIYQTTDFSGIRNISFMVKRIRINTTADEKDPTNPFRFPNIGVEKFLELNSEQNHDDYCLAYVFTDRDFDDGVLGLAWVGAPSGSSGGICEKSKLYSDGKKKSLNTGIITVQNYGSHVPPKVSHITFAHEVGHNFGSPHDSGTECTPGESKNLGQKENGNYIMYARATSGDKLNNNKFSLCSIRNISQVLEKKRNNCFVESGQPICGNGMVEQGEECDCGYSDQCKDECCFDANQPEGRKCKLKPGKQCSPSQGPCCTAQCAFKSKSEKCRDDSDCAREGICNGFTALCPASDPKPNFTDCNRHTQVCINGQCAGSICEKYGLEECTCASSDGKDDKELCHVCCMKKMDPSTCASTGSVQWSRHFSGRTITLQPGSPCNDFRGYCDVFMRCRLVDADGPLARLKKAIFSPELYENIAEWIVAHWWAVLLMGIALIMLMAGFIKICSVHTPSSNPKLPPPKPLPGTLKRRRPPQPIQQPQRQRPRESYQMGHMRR
Protocol: mADAM-10 or hADAM-10 activity was measured as the ability to cleave a 10-residue peptide (DABCYL-Leu-Leu-Ala-Gln-Lys-*-LeuArg-Ser-Ser-Arg-EDANS). […] Enzyme was diluted to a final active concentration of 5 nM in Buffer A (50 mM HEPES 8.0, 100 mM NaCl, 1 mM CaCl2 and 0.01% NP-40). Serial dilutions for compounds were performed ranging from 100 μM to 0.5 nM using a Beckman Biomek 2000 in polypropylene plates (Greiner). […] This reaction was incubated for 16 hr at RT and fluorescence was read using identical conditions.

[1] = target: T2, MMP-1 (Fibroblast collagenase) (Homo sapiens, UniProt P03956); assay: In vitro metalloprotease inhibition, MMP-1; format: biochemical
T2 sequence (P03956 100-469): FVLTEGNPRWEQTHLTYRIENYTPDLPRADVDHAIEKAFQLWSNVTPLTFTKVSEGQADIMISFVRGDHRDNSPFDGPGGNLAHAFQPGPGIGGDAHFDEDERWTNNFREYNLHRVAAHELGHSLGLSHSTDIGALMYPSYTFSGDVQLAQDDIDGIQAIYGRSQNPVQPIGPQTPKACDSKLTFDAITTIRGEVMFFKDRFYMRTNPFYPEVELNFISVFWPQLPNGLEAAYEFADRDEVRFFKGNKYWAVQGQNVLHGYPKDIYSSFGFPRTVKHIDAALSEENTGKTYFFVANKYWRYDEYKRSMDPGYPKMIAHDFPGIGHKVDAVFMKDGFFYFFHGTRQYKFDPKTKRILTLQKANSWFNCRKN
Excerpt: (§1) Blank cells indicate lack of data only.

[2] = target: T3, MMP-2 (72 kDa gelatinase, gelatinase A) (Homo sapiens, UniProt P08253); assay: In vitro metalloprotease inhibition, MMP-2; format: biochemical
T3 sequence (P08253 110-660): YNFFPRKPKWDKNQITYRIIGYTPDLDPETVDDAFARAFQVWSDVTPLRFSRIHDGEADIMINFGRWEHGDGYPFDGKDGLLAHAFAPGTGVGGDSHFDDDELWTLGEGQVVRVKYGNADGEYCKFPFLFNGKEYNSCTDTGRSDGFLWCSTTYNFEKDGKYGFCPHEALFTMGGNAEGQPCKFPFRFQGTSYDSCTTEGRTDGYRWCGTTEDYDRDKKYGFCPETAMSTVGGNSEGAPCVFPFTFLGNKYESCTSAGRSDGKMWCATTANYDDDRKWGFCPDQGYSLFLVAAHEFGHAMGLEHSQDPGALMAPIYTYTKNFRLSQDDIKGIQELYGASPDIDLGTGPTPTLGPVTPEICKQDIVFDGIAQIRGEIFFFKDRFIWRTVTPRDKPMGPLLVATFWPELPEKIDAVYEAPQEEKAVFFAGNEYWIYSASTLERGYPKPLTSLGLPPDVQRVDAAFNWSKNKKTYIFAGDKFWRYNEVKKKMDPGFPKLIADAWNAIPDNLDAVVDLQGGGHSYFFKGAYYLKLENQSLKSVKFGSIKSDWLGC

MMP-3 (Stromelysin-1) = MMP-3 (Stromelysin-1) (Homo sapiens, UniProt P08254); assay: In vitro metalloprotease inhibition, MMP-3; format: biochemical
MMP-3 (Stromelysin-1), sequence (P08254 100-477, species assumed): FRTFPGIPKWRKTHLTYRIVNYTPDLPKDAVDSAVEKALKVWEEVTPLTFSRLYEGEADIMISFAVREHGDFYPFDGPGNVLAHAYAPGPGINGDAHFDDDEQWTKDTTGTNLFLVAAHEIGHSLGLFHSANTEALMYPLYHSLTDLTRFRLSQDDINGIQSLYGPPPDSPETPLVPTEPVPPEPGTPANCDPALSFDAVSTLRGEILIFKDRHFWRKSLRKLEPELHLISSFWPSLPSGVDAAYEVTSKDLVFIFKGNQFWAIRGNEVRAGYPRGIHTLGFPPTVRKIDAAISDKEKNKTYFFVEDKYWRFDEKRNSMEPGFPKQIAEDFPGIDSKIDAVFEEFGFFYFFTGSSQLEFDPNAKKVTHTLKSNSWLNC
Excerpt: as §1

MMP-13 (collagenase-3) = MMP-13 (collagenase-3) (Homo sapiens, UniProt P45452); assay: In vitro metalloprotease inhibition, MMP-13; format: biochemical

IC50 (ADAM-10) [nM] | IC50 [1] [nM] | IC50 [2] [nM] | IC50 (MMP-3 (Stromelysin-1)) [nM] | IC50 (MMP-13 (collagenase-3)) [nM] | SMILES
50 to 1000 | 1000 to 20000 | 50 to 1000 | 1000 to 20000 | 50 to 1000 | O=C(NO)[C@H]1CN(C(=O)c2ccc(-c3ccccc3)cc2)CCN1S(=O)(=O)c1cc(F)c(Oc2ccc(Cl)cc2)c(F)c1 [Entry 51]
1000 to 20000 | > 20000 | < 50 | 50 to 1000 | < 50 | CN(C)c1ccc2c(S(=O)(=O)N3CCN(S(=O)(=O)c4cc(F)c(Oc5ccc(Cl)cc5)c(F)c4)[C@@H](C(=O)NO)C3)cccc2c1 [Entry 49]
< 50 | > 20000 | < 50 | 50 to 1000 | < 50 | O=C(NO)[C@H]1CN(S(=O)(=O)c2cccc3cnccc23)CCN1S(=O)(=O)c1cc(F)c(Oc2ccc(Cl)cc2)c(F)c1 [Entry 48]
50 to 1000 | > 20000 | < 50 | 1000 to 20000 | < 50 | C=CCN1CCN(S(=O)(=O)c2cc(F)c(Oc3ccc(Cl)cc3)c(F)c2)[C@@H](C(=O)NO)C1 [Entry 62]
< 50 | 1000 to 20000 | < 50 | 50 to 1000 | < 50 | COCCOC(=O)N1CCN(S(=O)(=O)c2cc(F)c(Oc3ccccc3)c(F)c2)[C@@H](C(=O)NO)C1 [Entry 40]
50 to 1000 | > 20000 | < 50 | 1000 to 20000 | < 50 | CN(C)c1cccc2c(S(=O)(=O)N3CCN(S(=O)(=O)c4cc(F)c(Oc5ccc(Cl)cc5)c(F)c4)[C@@H](C(=O)NO)C3)cccc12 [Entry 60]
50 to 1000 | < 50 | < 50 | < 50 | < 50 | COCCOC(=O)N1CCN(S(=O)(=O)c2ccc(Oc3ccc(F)cc3)nc2)[C@@H](C(=O)NO)C1 [Entry 65]
< 50 | 1000 to 20000 | < 50 | 50 to 1000 | < 50 | O=C(NO)[C@H]1CN(C(=O)C(=O)N2CCCCC2)CCN1S(=O)(=O)c1cc(F)c(Oc2ccc(Cl)cc2)c(F)c1 [Entry 35]
50 to 1000 | > 20000 | 50 to 1000 | 1000 to 20000 | 50 to 1000 | O=C(O)CN1CCN(S(=O)(=O)c2cc(F)c(Oc3ccc(Cl)cc3)c(F)c2)[C@@H](C(=O)NO)C1 [Entry 63]
< 50 | 50 to 1000 | < 50 | < 50 | < 50 | CN1CCN(C(=O)NS(=O)(=O)N2CCN(S(=O)(=O)c3cc(F)c(Oc4ccc(Cl)cc4)c(F)c3)[C@@H](C(=O)NO)C2)CC1 [Entry 39]
< 50 | > 20000 | < 50 | 1000 to 20000 | 50 to 1000 | CCCC(CCC)C(=O)N1CCN(S(=O)(=O)c2cc(F)c(Oc3ccc(Cl)cc3)c(F)c2)[C@@H](C(=O)NO)C1 [Entry 44]
< 50 | 50 to 1000 | < 50 | < 50 | < 50 | COCCOC(=O)N1CCN(S(=O)(=O)c2ccc(Oc3ccc4c(c3)CCCC4)nc2)[C@@H](C(=O)NO)C1 [Entry 64]
< 50 | 1000 to 20000 | < 50 | 50 to 1000 | < 50 | CN(C)S(=O)(=O)N1CCN(S(=O)(=O)c2cc(F)c(Oc3ccc(Cl)cc3)c(F)c2)[C@@H](C(=O)NO)C1 [Entry 36]
< 50 | 50 to 1000 | < 50 | 50 to 1000 | < 50 | O=C(NO)[C@H]1CN(C(=O)N2CCOCC2)CCN1S(=O)(=O)c1ccc(-c2cccc(F)c2)nc1 [Entry 58]
< 50 | 1000 to 20000 | < 50 | 1000 to 20000 | < 50 | O=C(NO)[C@H]1CN(C(=O)c2ccncc2)CCN1S(=O)(=O)c1cc(F)c(Oc2ccc(Cl)cc2)c(F)c1 [Entry 42]

Continued, compound first:

SMILES | IC50 (ADAM-10) [nM] | IC50 [1] [nM] | IC50 [2] [nM] | IC50 (MMP-3 (Stromelysin-1)) [nM] | IC50 (MMP-13 (collagenase-3)) [nM]
CN1CCN(C(=O)N2CCN(S(=O)(=O)c3cc(F)c(Oc4ccc(Cl)cc4)c(F)c3)[C@@H](C(=O)NO)C2)CC1 [Entry 16] | < 50 | > 20000 | < 50 | 1000 to 20000 | < 50
O=C(NO)[C@H]1CN(C(=O)OCCN2CCCC2)CCN1S(=O)(=O)c1cc(F)c(Oc2ccc(Cl)cc2)c(F)c1 [Entry 18] | < 50 | > 20000 | < 50 | 50 to 1000 | < 50
O=C(NO)[C@H]1CN(C(=O)N2CCOCC2)CCN1S(=O)(=O)c1ccc(Oc2ccc(Cl)cc2)c(F)c1 [Entry 6] | < 50 | 50 to 1000 | < 50 | < 50 | < 50
COCCOC(=O)N1CCN(S(=O)(=O)c2ccc(Oc3ccc(C#N)cc3)c(F)c2)[C@@H](C(=O)NO)C1 [Entry 5] | < 50 | 50 to 1000 | < 50 | 50 to 1000 | < 50
O=C(NO)[C@H]1CN(C(=O)OCCN2CCCCC2)CCN1S(=O)(=O)c1cc(F)c(Oc2ccc(Cl)cc2)c(F)c1 [Entry 27] | < 50 | 1000 to 20000 | < 50 | 50 to 1000 | < 50
O=C(NO)[C@H]1CN(C(=O)CN2CCCCC2)CCN1S(=O)(=O)c1cc(F)c(Oc2ccc(Cl)cc2)c(F)c1 [Entry 26] | < 50 | > 20000 | < 50 | 1000 to 20000 | < 50
O=C(NO)[C@H]1CNCCN1S(=O)(=O)c1cc(F)c(Oc2ccc(F)cc2)c(F)c1 [Entry 11] | 50 to 1000 | > 20000 | 50 to 1000 | 1000 to 20000 | > 20000
CN1CCC(OC(=O)N2CCN(S(=O)(=O)c3cc(F)c(Oc4ccc(Cl)cc4)c(F)c3)[C@@H](C(=O)NO)C2)CC1 [Entry 22] | < 50 | 1000 to 20000 | < 50 | 50 to 1000 | < 50
O=C(NO)[C@H]1CN(C(=O)N2CCOCC2)CCN1S(=O)(=O)c1cc(F)c(Oc2ccc(F)cc2)c(F)c1 [Entry 12] | < 50 | 1000 to 20000 | < 50 | 50 to 1000 | < 50
CNC(=O)CN1CCN(S(=O)(=O)c2cc(F)c(Oc3ccc(Cl)cc3)c(F)c2)[C@@H](C(=O)NO)C1 [Entry 19] | < 50 | > 20000 | < 50 | 50 to 1000 | < 50
CCOC(=O)N1CCN(S(=O)(=O)c2cc(F)c(Oc3ccc(F)cc3)c(F)c2)[C@@H](C(=O)NO)C1 [Entry 13] | < 50 | 1000 to 20000 | < 50 | 50 to 1000 | < 50
N#Cc1ccc(Oc2ccc(S(=O)(=O)N3CCN(C(=O)N4CCOCC4)C[C@@H]3C(=O)NO)cc2F)cc1 [Entry 7] | < 50 | 50 to 1000 | < 50 | < 50 | < 50
COCCOC(=O)N1CCN(S(=O)(=O)c2ccc(Oc3ccc(F)cc3)c(F)c2)[C@@H](C(=O)NO)C1 [Entry 3] | < 50 | 50 to 1000 | < 50 | 1000 to 20000 | < 50
CS(=O)(=O)N1CCN(S(=O)(=O)c2cc(F)c(Oc3ccc(Cl)cc3)c(F)c2)[C@@H](C(=O)NO)C1 [Entry 28] | < 50 | 50 to 1000 | < 50 | 50 to 1000 | < 50
